Reference: US11148998B2, “Dimethyl-nonatetraenyl-trimethyl-cyclohexyl compounds and uses thereof” (The Regents of the University of Michigan, priority 2017, dated 2021)

How the values were obtained:
[1] = system: serum pro-inflammatory cytokines; conditions: mouse, in vivo
Text: Each of the 4 experimental retinoids was made up in DMSO as 0.1% and 0.3% solutions. The material was applied to the treatment area (2 cm^2 area) on a dot marked area on the inter-scapular back) once daily for 7 consecutive days or for 21 consecutive days. The test agent was gently rubbed into the test site after application. As a control, Tretinoin-0.1% was used. […] This is a commonly-prescribed anti-acne medicine. A set amount of the test article, DMSO, DMSO plus test drug, or Tretinoin cream (35 mg) was delivered using a Gilson MICROMAN fully adjustable positive placement pipette.
Serum was obtained from all mice at the end of the study and evaluated for levels of pro-inflammatory cytokines. For this, the same multiplex ELISA used with human samples was employed except that mouse-recognizing antibodies replaced antibodies used to detect the human counterparts.

human dermal fibroblasts = assay: Generation of pro-inflammatory cytokines by fibroblasts (multiplex ELISA); type: cell-based; conditions: KBM 1.5 mM calcium, two days, culture fluids
Method: Fibroblasts were grown in KBM supplemented with 1.5 mM calcium (i.e., as in the fibroblast cytotoxicity assay) for two days. Culture fluids obtained at the end of the incubation period were assessed for several pro-inflammatory cytokines using a multiplex (ELISA-type) assay. Values shown are means and ranges based on duplicate samples in a single experiment. The experiment was repeated two times with similar results.
It is believed that the pro-inflammatory cytokines are “drivers” of the retinoid-induced skin irritation response. […] In this experiment, fibroblasts were cultured for two days in KBM supplemented with 1.5 mM calcium (i.e., as in the cytotoxicity assay). Culture fluids were collected after two days of incubation and subjected to a multiplex enzyme-linked immunosorbant assay (ELISA) for the following cytokines: TNF-α, IL-1β, IL-6, IL-8, MCP-1 and CXCL-1.

rhino mouse skin = assay: Rhino mouse topical treatment: gross skin irritation (modified Draize scale); type: in vivo; conditions: for gross skin appearance / irritation: topical daily for 21 days, photographed Day 22, ATRA as 35 mg of 0.1% cream, Examples in DMSO
Method: FIGS. 10A-C: Lack of Dose-related skin irritation after 21 day topical treatment of rhino mice with 100 μL DMSO control (10A) and 100 μL DMSO containing Example 2 at 0.1 (10B) and 0.3% concentrations (10C).
FIG. 11. […] The cumulative irritation score is a modified version of the Draize irritation scale, and the animals were assessed daily by an assessor who was blinded to the treatment given each mouse.
Rhino mice (HRS\J hr^rhhr^rh)) were obtained from Jackson Laboratories. Animals were recent weanlings; at this stage in the life of the rhinomouse, the phenotype (i.e., skin with numerous horn-filled utriculi) is well expressed and continues to be for several weeks. Both males and females were included. Animals were divided into treatment groups. Once in the laboratory, the mice were kept in temperature- and humidity-controlled rooms. All procedures during the in-life portion of the study were carried out in facilities of the Unit for Laboratory Animal Medicine (ULAM) at the University of Michigan—which is an AAALAC-certified institution. All procedures were carried out with approval by the University of Michigan Institutional Animal Care and Use Committee (IACUC).
As a control, Tretinoin-0.1% was used. […] This is a commonly-prescribed anti-acne medicine.
Animals were housed individually during the treatment phase of the study. During the treatment phase, animals were assessed daily for overall health, and for signs of skin irritation. The Draize scale was used to assess skin irritation. The Draize scale evaluates the parameters of erythema and edema. Each parameter was scored between 0 and 4+ with 0 indicating no difference from control mice and 4+ indicating maximum erythema or edema. In addition, animals were assessed for dryness/flaking/cracking (single score). The overall irritation score was a compilation of the three parameters in all mice from a treatment group. During the treatment phase, animals were weighed weekly.
FIG. 1 left provides a summation of the skin irritation response in the different treatment groups. In control mice, there was little evidence of skin irritation at any time throughout the study. […] The initial spike in irritation was followed by a dip and then secondary rise. This is consistent with what is typically seen with ATRA. […] Neither the control mouse nor the Compound 1 & 2 treated mice show visible signs of irritation in the skin. In contrast, skin from the ATRA-treated mouse is red, dry and flaky. Small cracks in the skin can be seen and there is significant edema.

[2] = system: human epidermal keratinocytes; assay: Retinoid-induced keratinocyte desquamation (cell-cell detachment, trypsin/EDTA); type: cell-based; conditions: two days, KBM 1.5 mM calcium
Method: At the end of the incubation period, the cells were exposed to a combination of trypsin and EDTA and the percentage of cells that detached from one another were assessed over time.
Human epidermal keratinocytes are isolated from the same skin biopsies as fibroblasts and grown in monolayer culture using Keratinocyte Growth Medium (KGM) as described previously (see, e.g., Varani J, et al., J Clin Invest. 1994; Varani J, et al., J. Invest. Dermatol. 94:717-723, 1990; Varani J, et al., J. Invest. Dermatol. 1989; 93:449-454). Growth is at 37° C. in a humidified atmosphere containing 5% CO2 and 95% air. For some studies, experiments use the HaCat line of immortalized human epidermal keratinocytes in place of primary or low-passage cells. Growth for these cells is exactly as with low-passage keratinocytes.
When keratinocytes are grown in monolayer culture, proliferation is optimal under low-calcium (0.05-0.15 mM) conditions. When the calcium concentration is raised to 1.5 mM, the keratinocyte differentiation occurs and proliferation slows. Under such conditions, strong cell-cell connections are made. […] The end result is that cells separate more easily from one another (see, e.g., Varani J, et al., J. Invest. Dermatol. 1989; 93:449-454; Varani J, et al., J Invest. Dermatol. 97:917-921, 1991; Varani J, et al., Am. Path. 138:887-895, 1991). Retinoid efficacy in acne is dependent, in part at least, on reduced epidermal cohesion and ability of acne lesional skin to slough during washing.
As a way to quantify detachment, keratinocytes grown for 2 days in culture medium containing 1.5 mM calcium were washed and exposed to a combination of trypsin and EDTA. Cell detachment from neighboring cells was assessed at timed intervals.

## CC1=C(/C=C/C(C)=C/C=C/C(C)=C/C(=O)O)C(C)(C)CCC1 [ATRA, all-trans retinoic acid, reference compound]
[1]
  IL-1β serum level: low
  IL-6 serum level: 1.55 ± 0.66 pg/mL
  KC/IL-8 serum level: 23 ± 4 pg/mL
  MCP-1 serum level: 158 ^± 43 pg/mL
  TNF-α serum level: low
  serum pro-inflammatory cytokine levels compared to control mice (in words): increase in levels of MCP-1, IL-6 and KC/IL-8
Human dermal fibroblasts
  induction of pro-inflammatory cytokines (TNF-α, IL-1β, IL-6, IL-8, MCP-1, CXCL-1): induced a strong up-regulation of several cytokines
Rhino mouse skin; 0.1% topical daily for 21 days
  cumulative irritation score (modified Draize scale): far more irritant
Rhino mouse skin
  gross skin appearance / irritation: considerable skin irritation, along with excessive skin flaking
[2]; 1.0 μg/mL
  ease of cell-cell separation (percentage of cells detached over time): increased the ease of cell-cell separation as compared to control

## CC1=C(/C=C/C(C)=C\C=C\C(C)=C\C(=O)N(C)CC(=O)C(C)(C)C)C(C)(C)CCC1 [Example 1, (2E,4E 6Z,8E)-N-(3,3-dimethyl-2-oxobutyl)-N,3,7-trimethyl-9-(2,6,6-trimethylcyclohex-1-en-1-yl)nona-2,4,6,8-tetraenamide]
[1]
  IL-1β serum level: low
  TNF-α serum level: low
Human dermal fibroblasts
  induction of pro-inflammatory cytokines (TNF-α, IL-1β, IL-6, IL-8, MCP-1, CXCL-1): no evidence of cytokine induction at the highest concentration
Human dermal fibroblasts; listed as Compound 1
  induction of pro-inflammatory cytokines (TNF-α, IL-1β, IL-6, IL-8, MCP-1, CXCL-1): not observed
Rhino mouse skin
  gross skin appearance / irritation: normal rhino mouse appearance
[2]; 1.0 μg/mL
  ease of cell-cell separation (percentage of cells detached over time): more potent than ATRA

## CC1=C(/C=C/C(C)=C\C=C\C(C)=C\C(=O)N(C)CC(=O)c2ccccc2)C(C)(C)CCC1 [Example 2, (2E,4E 6Z,8E)-N,3,7-trimethyl—N-(2-oxo-2-phenylethyl)-9-(2,6,6-trimethylcyclohex-1-en-1-yl)nona-2,4,6,8-tetraenamide]
[1]
  IL-1β serum level: low
  TNF-α serum level: low
Human dermal fibroblasts
  induction of pro-inflammatory cytokines (TNF-α, IL-1β, IL-6, IL-8, MCP-1, CXCL-1): no evidence of cytokine induction at the highest concentration
Human dermal fibroblasts; listed as Compound 2
  induction of pro-inflammatory cytokines (TNF-α, IL-1β, IL-6, IL-8, MCP-1, CXCL-1): not observed
Rhino mouse skin; 0.1% and 0.3% in DMSO, topical, 21 days
  signs of serious skin irritation: did not show any signs of serious skin irritation at either dose
Rhino mouse skin
  gross skin appearance / irritation: normal rhino mouse appearance
[2]; 2.5 μg/mL
  ease of cell-cell separation (percentage of cells detached over time): comparable to ATRA at 1 μg/mL
